Reference: patent US20230278972A1, “SUBSTITUTED HALOALKYL SULFONANILIDE HERBICIDES” (FMC Corporation, priority 2020, published 2023)

How the values were obtained:
Type in all cases: in vivo
[1] = system: barnyardgrass (Echinochloa crus-galli); assay: Test A preemergence, barnyardgrass; conditions: Preemergence; for Plant response rating, Barnyardgrass: 0 to 100 scale (0 no effect, 100 complete control)
In short: (§1)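 Greenhouse pot test in a loam–sand blend; compounds delivered in a non-phytotoxic solvent carrying a surfactant, applied either as a directed spray to soil at seeding or over seedlings 2 to 10 cm high with one to two leaves.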

[2] = system: kochia (Bassia scoparia); assay: Test A preemergence, kochia; conditions: Preemergence; for Plant response rating, Kochia: 0 to 100 scale (0 no effect, 100 complete control)
In short: as §1

[3] = system: ragweed (common ragweed, Ambrosia artemisiifolia); assay: Test A preemergence, ragweed; conditions: Preemergence; for Plant response rating, Ragweed: 0 to 100 scale (0 no effect, 100 complete control)
In short: as §1

[4] = system: Ryegrass, Italian (Italian ryegrass, Lolium multiflorum); assay: Test A preemergence, Ryegrass, Italian; conditions: Preemergence; for Plant response rating, Ryegrass, Italian: 0 to 100 scale (0 no effect, 100 complete control)
In short: as §1

[5] = system: Foxtail, Giant (giant foxtail, Setaria faberi); assay: Test A preemergence, Foxtail, Giant; conditions: Preemergence; for Plant response rating, Foxtail, Giant: 0 to 100 scale (0 no effect, 100 complete control)
In short: as §1

[6] = system: pigweed (Amaranthus retroflexus); assay: Test A preemergence, pigweed; conditions: for Plant response rating, Pigweed: 0 to 100 scale (0 no effect, 100 complete control)
In short: (§2)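 Formulated with a surfactant in a non-phytotoxic solvent, compounds are applied to loam–sand pots, either to bare soil immediately after seeding (preemergence) or to seedlings of 2 to 10 cm bearing one to two leaves (postemergence).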

[7] = system: barnyardgrass (Echinochloa crus-galli); assay: Test A postemergence, barnyardgrass; conditions: Postemergence, 0 to 100 scale (0 no effect, 100 complete control)
In short: as §2

[8] = system: kochia (Bassia scoparia); assay: Test A postemergence, kochia; conditions: Postemergence, 0 to 100 scale (0 no effect, 100 complete control)
In short: as §1

[9] = system: ragweed (common ragweed, Ambrosia artemisiifolia); assay: Test A postemergence, ragweed; conditions: Postemergence, 0 to 100 scale (0 no effect, 100 complete control)
In short: as §1

[10] = system: Ryegrass, Italian (Italian ryegrass, Lolium multiflorum); assay: Test A postemergence, Ryegrass, Italian; conditions: Postemergence, 0 to 100 scale (0 no effect, 100 complete control)
In short: as §1

[11] = system: Foxtail, Giant (giant foxtail, Setaria faberi); assay: Test A postemergence, Foxtail, Giant; conditions: Postemergence, 0 to 100 scale (0 no effect, 100 complete control)
In short: as §1

[12] = system: pigweed (Amaranthus retroflexus); assay: Test A postemergence, pigweed; conditions: Postemergence, 0 to 100 scale (0 no effect, 100 complete control)
In short: as §1

[13] = system: wheat (Triticum aestivum); assay: Test A postemergence, wheat; conditions: Postemergence, 0 to 100 scale (0 no effect, 100 complete control)
In short: as §2

[14] = system: corn (Zea mays); assay: Test A postemergence, corn; conditions: Postemergence, 0 to 100 scale (0 no effect, 100 complete control)
In short: as §1

[15] = system: blackgrass (Alopecurus myosuroides); assay: Test A postemergence, blackgrass; conditions: Postemergence, 0 to 100 scale (0 no effect, 100 complete control)
In short: as §1

[16] = system: galium (catchweed bedstraw, Galium aparine); assay: Test A postemergence, galium; conditions: Postemergence, 0 to 100 scale (0 no effect, 100 complete control)
In short: as §2

[17] = 125 g ai/ha, visual injury, approx. 10 days
[18] = 500 g ai/ha, visual injury on 0 to 100 scale (0 no effect, 100 complete control), approximately 10 days
[19] = 500 g ai/ha, visual injury approx. 10 days
[20] = 500 g ai/ha, visual injury vs untreated controls after approx. 10 days

Cc1cc(C)c(N(S(=O)(=O)C(F)(F)F)S(=O)(=O)C(F)(F)F)cc1C(=O)N1CCCOCC1 [Compound 276]
Plant response rating, Barnyardgrass [1, 17]: 70
Barnyardgrass plant response rating [1, 18]: 100
Plant response rating, Kochia [2, 17]: 0
Kochia plant response rating [2, 18]: 0
Plant response rating, Ragweed [3, 17]: 40
Ragweed plant response rating [3, 18]: 70
Plant response rating, Ryegrass, Italian [4, 17]: 30
Ryegrass, Italian plant response rating [4, 18]: 80
Plant response rating, Foxtail, Giant [5, 17]: 100
Foxtail, Giant plant response rating [5, 18]: 100
Plant response rating, Pigweed [6, 17]: 80
Pigweed plant response rating [6, 18]: 100
Plant response rating, Barnyardgrass ([7]; 125 g ai/ha): 60
Plant response rating, Barnyardgrass [7, 19]: 90
Plant response rating, Kochia ([8]; 125 g ai/ha): 20
Plant response rating, Kochia [8, 19]: 60
Plant response rating, Ragweed ([9]; 125 g ai/ha): 50
Plant response rating, Ragweed [9, 19]: 80
Plant response rating, Ryegrass, Italian ([10]; 125 g ai/ha): 0
Plant response rating, Ryegrass, Italian [10, 19]: 10
Plant response rating, Foxtail, Giant ([11]; 125 g ai/ha): 10
Plant response rating, Foxtail, Giant [11, 19]: 90
Plant response rating, Pigweed ([12]; 125 g ai/ha): 60
Plant response rating, Pigweed [12, 19]: 80
Plant response rating, Wheat ([13]; 125 g ai/ha): 0
Plant response rating, Wheat [13, 19]: 20
Plant response rating, Corn ([14]; 125 g ai/ha): 0
Plant response rating, Corn [14, 19]: 20
Plant response rating, Blackgrass ([15]; 125 g ai/ha): 0
Plant response rating, Blackgrass [15, 19]: 0
Plant response rating, Galium ([16]; 125 g ai/ha): 80
Plant response rating, Galium [16, 19]: 90

Cc1cc(F)c(C(=O)N(C)C)cc1NS(=O)(=O)C(F)(F)F [Compound 215]
Plant response rating, Barnyardgrass [1, 17]: 60
Plant response rating, Barnyardgrass ([1]; 500 g ai/ha): 90
Plant response rating, Kochia [2, 17]: 80
Plant response rating, Kochia ([2]; 500 g ai/ha): 90
Plant response rating, Ragweed [3, 17]: 0
Plant response rating, Ragweed ([3]; 500 g ai/ha): 20
Plant response rating, Ryegrass, Italian [4, 17]: 20
Plant response rating, Ryegrass, Italian ([4]; 500 g ai/ha): 70
Plant response rating, Foxtail, Giant [5, 17]: 40
Plant response rating, Foxtail, Giant ([5]; 500 g ai/ha): 70
Plant response rating, Pigweed [6, 17]: 100
Plant response rating, Pigweed ([6]; 500 g ai/ha): 90
Plant response rating, Barnyardgrass ([7]; 125 g ai/ha): 0
Barnyardgrass plant response rating [7, 20]: 40
Plant response rating, Kochia ([8]; 125 g ai/ha): 30
Kochia plant response rating [8, 20]: 70
Plant response rating, Ragweed ([9]; 125 g ai/ha): 60
Ragweed plant response rating [9, 20]: 80
Plant response rating, Ryegrass, Italian ([10]; 125 g ai/ha): 0
Ryegrass, Italian plant response rating [10, 20]: 60
Plant response rating, Foxtail, Giant ([11]; 125 g ai/ha): 20
Foxtail, Giant plant response rating [11, 20]: 50
Plant response rating, Pigweed ([12]; 125 g ai/ha): 50
Pigweed plant response rating [12, 20]: 80
Plant response rating, Wheat ([13]; 125 g ai/ha): 30
Wheat plant response rating [13, 20]: 70
Plant response rating, Corn ([14]; 125 g ai/ha): 0
Corn plant response rating [14, 20]: 60
Plant response rating, Blackgrass ([15]; 125 g ai/ha): 0
Blackgrass plant response rating [15, 20]: 0
Plant response rating, Galium ([16]; 125 g ai/ha): 50
Galium plant response rating [16, 20]: 70
